# In a melting point compilation (Tetko et al.; mined from patent text by program, amines drawn as free bases though some values may be those of a salt):
row,SMILES,melting point
1,CC(C)(C)OC(=O)Nc1ccc(C#Cc2ccc(OC(F)(F)F)cc2)cc1[N+](=O)[O-],129 to 131 °C
2,COC(=O)Cc1c(C)nn(-c2ccccc2)c1C,63 to 64 °C
3,O=c1[nH]c2ccccc2c2cc(CO)nn12,286 to 288 °C
4,CC(N)CC(=O)Nc1ccc(Nc2ccccc2)cc1 (configuration not stated),130 to 132 °C
5,COC(=O)CC[C@H](NC(=O)c1ccc(C#Cn2cnc3nc(C)c(OC(=O)C(C)(C)C)c-3c2O)cc1)C(=O)OC,163 °C
6,CCOC(=O)c1ccc(NC(=O)N(CCc2ccccc2)c2ccc3c(c2)C(C)(C)CCC3(C)C)cc1,223 to 225 °C
7,CC(C)OC(=O)N1CCC(c2nc3cc(-c4ccc(-n5cnnn5)c(F)c4)ccc3o2)CC1,187 to 191 °C
8,CCOC(=O)CCCSc1nnc(S)s1,107 to 108 °C
9,CCCCCC(CC(=O)Nc1cc(CO)ccc1C(C)(C)C)c1ccccc1C(F)(F)F (configuration not stated),147 to 148 °C
10,COc1ccc(C(=O)c2cc3ccccc3o2)cc1,93 to 94 °C
11,CCOc1cccc(C(COC)n2nc(C(=O)O)c3c2-c2ccc(OCc4cncnc4)cc2CC3)c1 (configuration not stated),208 to 211 °C
12,C=CCNc1cc2c(c3ccccc13)C(CCl)CN2C(=O)c1cc2cc(OC)c(OC)c(OC)c2[nH]1 (configuration not stated),107 to 112 °C
13,CC(C)Nc1cccnc1N1CCN(C(=O)c2ccc(C(=O)NCCc3cccs3)cn2)CC1,131 to 134 °C
14,COc1ccc(C(=O)c2cccc(OCc3nc(-c4ccccc4)oc3C)c2)c(OCCOC(C)=O)c1,90 to 91 °C
15,Clc1ccc(C2C=Cc3cc(Br)cnc3O2)cc1Cl (configuration not stated),100 to 101 °C
16,CCOC(=O)Cn1c2c(c3c(Cl)ccc(Cl)c31)CCN(C(=O)OC(C)(C)C)CC2,118 to 120 °C
17,CCC(=O)OC1C(=O)N(c2nnc(C(C)(C)C)s2)C(=O)N1C (configuration not stated),176 °C
18,COc1ccccc1C1CC(=O)Oc2ccc(C)cc21 (configuration not stated),140 °C
19,CCS(=O)(=O)Nc1cc(-n2nnn(CCCF)c2=O)c(F)cc1Cl,84 to 85 °C
20,CCOC(=O)CNc1nc(Cl)nc(Cl)n1,82 to 87 °C
21,CC(C)(C(=O)c1ccc(N2CCOCC2)cc1)N1CCOCC1,114 to 116 °C
22,COc1ccc2c(c1)C(OC)(c1ccccc1)OC21CCN(Cc2ccccc2)CC1 (configuration not stated),129 to 133 °C
23,CC1=NN=C(c2ccc(NC(=O)CN(C)C)cc2)c2cc3c(cc2C1)OCO3,211 to 213 °C
24,Nc1cc(Sc2cccc3cnccc23)c(Cl)cc1[N+](=O)[O-],> 270 °C
25,CC(C)(C)OC(=O)N[C@@H](Cc1cc(F)cc(F)c1)[C@H](O)CCl,149 °C
26,O=C(CNS(=O)(=O)c1ccccc1)c1ccc(OCc2ccccc2)cc1,148 to 149 °C

row,SMILES,melting point
1,CNC(=O)Nc1nc(C(C)c2ccc(-c3ccccc3)c(F)c2)cs1 (configuration not stated),208 to 209 °C
2,Cn1nc(N2c3cc(F)ccc3CC2C(=O)N2CCCCCC2)ccc1=O (configuration not stated),204 to 207 °C
3,CCOC(=O)c1cn(C(C)CSc2ccccc2)c2nc(F)c(Cl)cc2c1=O (configuration not stated),70 °C
4,CC(=O)OC(=Cc1ccccc1)c1ccc(OC(C)=O)c(OC(C)=O)c1[N+](=O)[O-],119 to 121 °C
5,CS(=O)(=O)Nc1ccc(O)cn1,246 to 247 °C
6,Nc1nc(N2CCCC2)c2ncn([C@@H]3C[C@H](CO)[C@@H](O)C3)c2n1,114 to 117 °C
7,COC(=O)CCc1cc(C(C)(C)C)c2oc(-c3ccc(-c4nc5cc(CCC(=O)OC)cc(C(C)(C)C)c5o4)s3)nc2c1,144 to 145 °C
8,O=c1ccc(C2(O)CCCCC2)c[nH]1,194 to 196 °C
9,Cc1oc(-c2ccccc2)nc1COc1ccc(C(=O)O)cc1,190 to 191 °C
10,CC(C)(C)OC(=O)[C@@H]1CS[C@H](c2ccccc2F)N1C(=O)CNC(=O)Nc1cccc(CC(=O)O)c1,110 °C
11,O=C(NNc1ccc(C(F)(F)F)cc1)c1ccccc1F,163 to 165 °C
12,O=C(O)c1cc(=O)c2oc3ccc(Cl)cc3c(=O)c2n1Cc1ccccc1,269 to 271 °C
13,N#Cc1cccc(CN2C(=O)C3(COc4cc5c(cc43)OCCO5)c3ccccc32)c1 (configuration not stated),94 to 96 °C
14,O=C(O)CCC(=O)c1cccc(S(=O)(=O)Cl)c1,73 to 78 °C
15,CC(=Cc1ccc(OCCCN(C)C)cc1)C(=O)O,> 190 °C
16,CCOC(=O)C(=CNc1cccc(C)n1)C(=O)OCC,102 to 104 °C
17,O=C(O)Cc1cc(C(=O)c2cccc(Cl)c2)ccc1O,186 °C
18,CC(C)(C)NCC(O)c1ccc(OCc2ccccc2)c(C(N)=O)c1 (configuration not stated),120 °C
19,COc1ccc(CC2SC(=O)NC2=O)cc1NC(=O)Cc1ccc(C(F)(F)F)cc1 (configuration not stated),147 to 149 °C
20,CCC(OC)C1(OC)OC12CO2 (configuration not stated),68 to 70 °C
21,CCOC(=O)NC1CCN(Cc2ccccc2)CC1,100 °C
22,COc1ccc(CC2N(C)CCC(O)(c3ccccc3)C2(C)C)cc1 (configuration not stated),122 to 124 °C
23,COC(=O)C(Oc1ccc(C(=O)CN2CCN(c3ccncc3)CC2)cc1)C(=O)OC,115 to 116 °C
24,NC(=O)c1ccc(N[C@H]2CC[C@H](N)CC2)cc1F,166 to 167 °C
25,Cn1cc(C(N)=O)c(Nc2ccc(C#N)cc2F)cc1=O,261 to 266 °C
26,CN1CC(OC(c2ccccc2)c2ccccc2)C1,44 to 48 °C

row,SMILES,melting point
1,Oc1ccc(C2Oc3ccccc3C=C2c2ccc(OC3CCCCO3)cc2)cc1 (configuration not stated),110 °C
2,CCCC(=O)OC1(C(C)=O)C(C)CC2C3CCC4=CC(=O)C=CC4(C)C3(Cl)C(=O)CC21C (configuration not stated),154 to 155 °C
3,CC1(C)C(C=CC(=O)O)C1C(=O)OC(C#N)c1ccc(F)c(Oc2ccccc2)c1 (configuration not stated),99 °C
4,CCCCc1ccc(C(=O)Oc2ccc(C#N)c(F)c2)nc1,45.1 to 46.1 °C
5,NC(=O)CN1C(=O)COc2cc(F)c(N3C(=O)C4=C(CCCC4)C3=O)cc21,283 to 286 °C
6,CCC(Oc1c(C)c(F)cc(F)c1F)C1=NCCN1 (configuration not stated),99 to 101 °C
7,Cc1oc2c(C)c(C)c(NC(=O)c3ccc(F)cc3)c(C)c2c1-c1ccc(C(C)C)cc1,242 to 245 °C
8,Cc1cccc(Cl)c1CC#N,49 to 51 °C
9,COc1ccc(S(=O)(=O)N(C)c2ccc(Cl)cc2C(O)c2ccccc2Cl)cc1OC (configuration not stated),173 °C
10,CCC1(C)OC(c2ccc(S(N)(=O)=O)cc2)=C(c2ccccc2)C1=O (configuration not stated),153 to 154 °C
11,CN1c2ccccc2[C@H]2Cc3ccccc3[C@H]21 (relative stereo),76 to 77 °C
12,COc1ccc(OC)c2c1CCC(C#N)C2C#N (configuration not stated),126 to 127 °C
13,CCCCCC1CCC(c2ccc(-c3cc(F)c(N)cc3F)cc2)CC1 (configuration not stated),68.3 to 70.4 °C
14,Nc1nc2ccc(NC(=O)c3ccccc3)cc2s1,213 to 215 °C
15,COC(=O)CCc1cc(C(C)(C)C)c(O[Si](C)(C)Oc2c(C(C)(C)C)cc(CCC(=O)OC)cc2C(C)(C)C)c(C(C)(C)C)c1,122 to 129 °C
16,CC(C)(O)CC(=O)N[C@H]1CC[C@H](CCN2CCN(c3nccc4c3OCC4)CC2)CC1,139 °C
17,Fc1ccc(-c2[nH]cc(CCCN3CCCCC3)c2-c2ccncc2)cc1,195 to 197 °C
18,CCOC(=O)c1ccc(/C=C(\C)C=O)c(OC)c1,59 to 61 °C
19,CCCc1c(OCc2cccn3c(=O)c(CC(=O)OCC)cnc23)ccc(C(C)=O)c1O,134 to 135 °C
20,CC(C)C1=NC(NC(=O)CCc2ccc(Cl)cc2Cl)C(=O)N(C)c2ccccc21 (configuration not stated),173 to 174 °C
21,Cc1nc(-n2cccc(OCc3ccccc3)c2=O)sc1C(=O)NCc1ccccc1,198 to 201 °C
22,COc1cccc(Nc2cc(=S)ss2)c1,131 to 134 °C
23,O=C(NCCCl)NCC1(Cc2ccccc2)CC(=O)C(OCc2ccccc2)=CN1 (configuration not stated),130 °C
24,CCC(C(=O)c1ccc(C(C)C)c(OS(N)(=O)=O)c1C(C)C)c1ccccc1 (configuration not stated),142 to 145 °C
25,CCOC(=O)C(=NOC)C1=CSCCO1,64 to 66 °C
26,c1ccc(Cc2nnc(Nc3cccc(-n4ccnc4)c3)c3ccccc23)cc1,214 to 217 °C

row,SMILES,melting point
1,CCOC1=NS(=O)(=O)c2ccc([N+](=O)[O-])cc21,151 to 154 °C
2,CNC(=O)Nc1snc(S(C)(=O)=O)c1C#N,275 °C
3,N#Cc1c(Cc2ccccc2)nn(C2CCCC2)c1NC(=O)c1ccncc1,189 to 191 °C
4,OC(Cn1cncn1)c1ccc(Oc2ccc(Br)cc2)cc1Cl (configuration not stated),115 to 118 °C
5,COC(=O)c1cc([N+](=O)[O-])nn1C,65 to 66 °C
6,CCS(=O)(=O)c1c(Cl)nc(Cl)nc1Cl,135 to 136 °C
7,O=C(Nc1ccc([N+](=O)[O-])cc1)N1CC=CCC1,169 to 170 °C
8,CC(Cl)c1ccccc1S(N)(=O)=O (configuration not stated),121 to 122 °C
9,CSC1NC(=O)N(C)C(=O)N1N (configuration not stated),174 to 175 °C
10,COc1ccc(-c2cccc(-c3nc(C(C)C)[nH]c3-c3cccc(C)n3)c2)cn1,72 to 74 °C
11,CCOC(=O)C=Cc1ccc2c(c1)c(-c1cc3cccnc3n1S(=O)(=O)c1ccc(C)cc1)cn2C,159 to 162 °C
12,COc1ccc(N2CCOCC2)c2sc(NC(=O)N(C)C3CCOCC3)nc12,240 to 242 °C
13,CC1(CBr)OC(C(Br)(Br)Br)OC1=O (configuration not stated),110 to 113 °C
14,CCCC(CCC)n1c(CC)nc2c1c(=O)n(C)c(=O)n2-c1ccc(Cl)cc1Cl,185 to 186 °C
15,COc1ncc([N+](=O)[O-])cc1C,95 to 96.5 °C
16,Nc1nc(COc2ccccc2)nc2nccnc12,202 to 204 °C
17,CN1CSC(Cc2cc(C(C)(C)C)c(O)c(C(C)(C)C)c2)C1=O (configuration not stated),102 to 105 °C
18,CCOc1cc2cc(C(=O)O)cc(-c3ccnc(Cl)c3)c2cc1OCC,> 250 °C
19,CSc1nc(-c2ccc(C(F)(F)F)cc2)c2cc(C)sc2n1,113 °C
20,NC(=O)N1CC(Oc2ccc(Cl)cc2)C1,187 to 188 °C
21,c1ccc(CN2CCCCC2)c(CN2CCCCC2)c1,86 to 88 °C
22,CCCc1c(OCCOc2ccccc2C(=O)OC)ccc(C(C)=O)c1O,84 to 87 °C
23,CCCn1c(SC)nc2ccsc2c1=O,142 to 144 °C
24,FC(F)(F)Sc1ccc(C=Cc2nc(COc3ccc(CCCCn4ccnn4)cc3)co2)cc1,144 to 145 °C
